In PMC6902473 (Clinical Epigenetics, 2019):
Several values for one entry are separate records, joined by “and”; a condition that tells them apart may be missing. Equal values may be shown once.

Columns and labels:
[1] = Plasma pharmacokinetics of vorinostat after oral administration (non-compartmental analysis)
Text: The assays were validated according to the common FDA and EMA guidelines on bioanalytical method validation.

[2] = daily and continuous dosing; cited from earlier work
[3] = system: relapsed or therapy-refractory solid tumors (including brain tumors), lymphoma, or leukemia; assay: Phase II tumor response and survival at individual MTD (RECIST version 1.1)
Protocol: During phase II, disease assessments were performed every 3 months, starting 3 months after reaching individual MTD. If treatment was discontinued for any reason during phase II, treatment was prolonged thereafter to provide a minimal treatment window of 3 months before measuring response. Patients without progressive disease continued the therapy at their individual MTD until disease progression (but no longer than 9 months). In case of clinical benefit, treatment could be continued on an individual basis at the discretion of the investigator. Toxicities were graded according CTCAE V4.0.
The primary end point was to determine a safe dose recommendation (SDR), defined as the highest dose with a DLT in no more than 1/50 patients.
Pretreatment evaluations included medical history, physical examination, ECG, ß-hCG in urine pregnancy test (if applicable), and complete blood count including differential, serum electrolytes liver, and renal function tests. Tumor markers were determined if appropriate. During phase I and the first 3 months of phase II (until the first response evaluation), history, physical examination, and laboratory studies were obtained weekly. If patients continued treatment beyond the first response evaluation in phase II (i.e., not showing PD), evaluations were performed every 2 weeks. After end of treatment, patients were followed-up for 3 months according the same scheme. In addition, an ECG was performed during phase I on day 8, 15, and at the time of reaching the individual MTD. Disease evaluations were performed at baseline, after 3 months of treatment at individual MTD, and every 3 months thereafter, using MRI (solid tumors, brain tumors, lymphomas), MIBG scan (neuroblastoma), or bone marrow evaluation (leukemia). Responses were reported using RECIST version 1.1 (solid tumors, brain tumors, lymphomas) [42–44] or the International Neuroblastoma Response Criteria (INRC) (neuroblastoma) [45], by central review. Bone marrow aspirates were evaluated in a central lab together with peripheral blood differential blood counts.
Standard methods for survival analysis (e.g., Kaplan-Meier estimates of the survival curves, Greenwood’s formula for estimating the standard error of event rates) were used for the analysis of time-to-event endpoints. […] Efficacy analysis included all patients who had completed the escalation/de-escalation scheme and started with the individual therapy at the MTD.
The AUCs were calculated by mixed log-linear model. Following exploratory aims to predict progression free survival (PFS) and overall survival (OS), an optimal cutpoint in the continuous PK parameter distributions of Cmax and AUC/D was determined by the minimum p value approach based on the log-rank test [51]. Graphical and statistical analysis was performed with Graphpad Prism 7.0 (Graphpad Software Inc., La Jolla, CA, USA), Kinetica 5.0 (Thermo Fisher Scientific, Waltham, MA, USA), and the R software/environment version 3.5.1 (R Foundation for Statistical Computing, Vienna, Austria).

[4] = 530 mg/m2/d oral, plasma, maximum of 3 values
[5] = 530 mg/m2/d oral, plasma, minimum of 3 values
[6] = single patient: High grade glioma, highest methylation score for glioblastoma IDH wt, (NC) not censored
[7] = single patient: High grade glioma, methylation profile pilocytic astrocytoma, BRAF (p.V600E), (C) censored
[8] = single patient: Medulloblastoma, (C) censored
[9] = single patient: SETTLE tumor, (C) censored

## O=C(CCCCCCC(=O)Nc1ccccc1)NO [vorinostat]
[1]; [4]
  Clearance, Maximum: 678 L/h
  Cmax, Maximum: 629 ng/mL
[1]; [5]
  Clearance, Minimum: 241 L/h
  Cmax, Minimum: 451 ng/mL
  Vz, Minimum: 508 L
[1]; dose level 130 mg/m2/d, mean
  t1/2: 2.16 h
[1]; dose level 130 mg/m2/d, median
  t1/2: 2.16 h
[1]; dose level 180 mg/m2/d, mean
  t1/2: 2.22 h
[1]; dose level 330 mg/m2/d, mean
  t1/2: 2.13 h
[1]; human, in vivo, 130 mg/m2
  AUC(0-t): 1140 ng·h/mL
  Clearance: 167 L/h
  Vz: 563 L
[1]; human, in vivo, 130 mg/m2, AUClast
  AUC(0-t): 4.32 µM·h and 970 ng·h/mL
[1]; human, in vivo, 130 mg/m2, Clearance
  Clearance: 108 L/h
[1]; human, in vivo, 130 mg/m2, Cmax
  Cmax: 1.02 µM and 269 ng/mL
[1]; human, in vivo, 130 mg/m2, Vz
  Vd: 336 L
[1]; human, in vivo, 180 mg/m2
  Clearance: 225 L/h
  Tmax: 2.39 h
  Vz: 681 L
  t1/2: 1.93 h
[1]; human, in vivo, 180 mg/m2, AUClast
  AUC(0-t): 3.75 µM·h and 992 ng·h/mL
[1]; human, in vivo, 180 mg/m2, Clearance
  Clearance: 182 L/h
[1]; human, in vivo, 180 mg/m2, Cmax
  Cmax: 1.06 µM and 281 ng/mL
[1]; human, in vivo, 180 mg/m2, Tmax
  Tmax: 1.5 h
[1]; human, in vivo, 180 mg/m2, Vz
  Vd: 490 L
[1]; human, in vivo, 214 mg/m2
  Clearance: 399 L/h
[1]; human, in vivo, 214 mg/m2, AUClast
  AUC(0-t): 2.52 µM·h and 666 ng·h/mL
[1]; human, in vivo, 214 mg/m2, Clearance
  Clearance: 399 L/h
[1]; human, in vivo, 214 mg/m2, Cmax
  Cmax: 1.29 µM and 341 ng/mL
[1]; human, in vivo, 214 mg/m2, t1/2
  half-life: 1.12 h
[1]; human, in vivo, 230 mg/m2
  AUCtotal: 1310 ng·h/mL
  Clearance: 257 L/h
  Vz: 640 L
[1]; human, in vivo, 230 mg/m2, AUClast
  AUC(0-t): 4.89 µM·h and 1290 ng·h/mL
[1]; human, in vivo, 230 mg/m2, Clearance
  Clearance: 221 L/h
[1]; human, in vivo, 230 mg/m2, Cmax
  Cmax: 1.44 µM and 380 ng/mL
[1]; human, in vivo, 230 mg/m2, Tmax
  Tmax: 1.5 h
[1]; human, in vivo, 230 mg/m2, Vz
  Vd: 532 L
[1]; human, in vivo, 230 mg/m2, t1/2
  half-life: 1.63 h
[1]; human, in vivo, 250 mg/m2
  Clearance: 189 L/h
  Tmax: 1.75 h
  t1/2: 1.48 h
[1]; human, in vivo, 250 mg/m2, AUClast
  AUC(0-t): 5.77 µM·h and 1520 ng·h/mL
[1]; human, in vivo, 250 mg/m2, Clearance
  Clearance: 189 L/h
[1]; human, in vivo, 250 mg/m2, Tmax
  Tmax: 1.75 h
[1]; human, in vivo, 250 mg/m2, Vz
  Vd: 398 L
[1]; human, in vivo, 250 mg/m2, t1/2
  half-life: 1.48 h
[1]; human, in vivo, 280 mg/m2
  AUC(0-t): 4.96 µM·h
  Clearance: 195 L/h
  Tmax: 2.09 h
  t1/2: 1.83 h
[1]; human, in vivo, 280 mg/m2, AUClast
  AUC(0-t): 1310 ng·h/mL and 6.33 µM·h
[1]; human, in vivo, 280 mg/m2, Clearance
  Clearance: 207 L/h
[1]; human, in vivo, 280 mg/m2, Tmax
  Tmax: 1.5 h
[1]; human, in vivo, 280 mg/m2, t1/2
  half-life: 1.5 h
[1]; human, in vivo, 330 mg/m2
  Clearance: 149 L/h
  Tmax: 2.00 h
  Vz: 427 L
[1]; human, in vivo, 330 mg/m2, AUClast
  AUC(0-t): 8.06 µM·h and 2130 ng·h/mL
[1]; human, in vivo, 330 mg/m2, Clearance
  Clearance: 126 L/h
[1]; human, in vivo, 330 mg/m2, Cmax
  Cmax: 1.83 µM and 483 ng/mL
[1]; human, in vivo, 330 mg/m2, Tmax
  Tmax: 2.5 h
[1]; human, in vivo, 330 mg/m2, Vz
  Vd: 429 L
[1]; human, in vivo, 330 mg/m2, t1/2
  half-life: 1.89 h
[1]; human, in vivo, 380 mg/m2, AUClast
  AUC(0-t): 14.2 µM·h and 3750 ng·h/mL
[1]; human, in vivo, 380 mg/m2, Cmax
  Cmax: 3.38 µM and 893 ng/mL
[1]; human, in vivo, 380 mg/m2, Tmax
  Tmax: 4.3 h
[1]; human, in vivo, 430 mg/m2
  Clearance: 174 L/h
  Tmax: 1.00 h
  t1/2: 2.49 h
[1]; human, in vivo, 430 mg/m2, AUClast
  AUC(0-t): 6.39 µM·h and 1690 ng·h/mL
[1]; human, in vivo, 430 mg/m2, Clearance
  Clearance: 174 L/h
[1]; human, in vivo, 430 mg/m2, Vz
  Vd: 661 L
[1]; human, in vivo, 430 mg/m2, t1/2
  half-life: 2.49 h
[1]; human, in vivo, 480 mg/m2
  Clearance: 237 L/h
[1]; human, in vivo, 480 mg/m2, AUClast
  AUC(0-t): 14.2 µM·h and 3760 ng·h/mL
[1]; human, in vivo, 480 mg/m2, Clearance
  Clearance: 237 L/h
[1]; human, in vivo, 480 mg/m2, Cmax
  Cmax: 4.64 µM and 1230 ng/mL
[1]; human, in vivo, 480 mg/m2, Tmax
  Tmax: 0.5 h
[1]; human, in vivo, 480 mg/m2, Vz
  Vd: 421 L
[1]; human, in vivo, Cmax
  Cmax: > 270 ng/mL
[1]; human, in vivo, po
  AUC0_0-inf/D: 5.49 ± 2.75 (ng/mL*h)/(mg/d)
  Clearance: 235 ± 149 L/h
  Clearance, 25% Percentile: 181 L/h
  Cmax/D: 1.70 ± 1.18 (ng/mL)/(mg/d)
  Vz: 644 ± 460 L
  Vz, 25% Percentile: 397 L
  t½: 1.98 ± 0.96 h
[1]; human, in vivo, po, 530 mg/m2
  Clearance, Mean: 408 L/h
  Clearance, Median: 304 L/h
  Vz, Maximum: 1330 L
  Vz, Mean: 1008 L
  Vz, Median: 1186 L
[1]; human, in vivo, po, 530 mg/m2, AUClast, Median
  AUC(0-t): 5.82 µM·h and 1540 ng·h/mL
[1]; human, in vivo, po, 530 mg/m2, Tmax, Mean
  Tmax: 2.17 h
[1]; human, in vivo, po, 530 mg/m2, t1/2, Mean
  half-life: 1.84 h
[1]; human, in vivo, po, 530 mg/m2, t1/2, Median
  half-life: 1.46 h
[1]; human, in vivo, po, 580 mg/m2
  AUClast, Median: 10.3 µM·h
  Clearance, Maximum: 453 L/h
  Clearance, Mean: 295 L/h
  Clearance, Median: 211 L/h
  Clearance, Minimum: 155 L/h
  Cmax, Maximum: 1689 ng/mL
  Cmax, Minimum: 315 ng/mL
  Tmax, Maximum: 2.00 h
  Tmax, Mean: 1.40 h
  Vz, Maximum: 2135 L
  Vz, Mean: 793 L
  Vz, Median: 480 L
  t1/2, Maximum: 3.30 h
  t1/2, Minimum: 0.850 h
[1]; human, in vivo, po, 580 mg/m2, AUClast, Mean
  AUC(0-t): 11.3 µM·h
[1]; human, in vivo, po, 580 mg/m2, Cmax, Mean
  Cmax: 4.33 µM and 1140 ng/mL
[1]; human, in vivo, po, 580 mg/m2, Cmax, Median
  Cmax: 5.42 µM and 1430 ng/mL
[1]; human, in vivo, po, 580 mg/m2, t1/2, Mean
  half-life: 1.78 h
[1]; human, in vivo, po, 580 mg/m2, t1/2, Median
  half-life: 1.62 h
[1]; human, in vivo, po, Tmax
  Tmax: 2.07 ± 1.37 h
[1]; read-out: Cmax, Maximum, 530 mg/m2/d oral, plasma, maximum of 3 values
  Cmax: 2380 nM
[1]; read-out: Cmax, Minimum, 530 mg/m2/d oral, plasma, minimum of 3 values
  Cmax: 1710 nM
[2]
  pediatric recommended phase 2 dose: 230 mg/m^2/day
[3]; Efficacy population (n = 27)
  Best ORR (CR + PR + SD): 6 (22.2, 8.6–42.3) No. (%, 95% CI)
  Best RR (CR + PR): 4 (14.8, 4.2–33.7) No. (%, 95% CI)
  Median OS (95% CI): 22.4 months and 22.4 (6.3 - --) months
  Median PFS (95% CI): 5.3 (4.6–5.9) months
  Median response duration: 19.1 months
  best overall response rate (combining PR and SD, no CR observed): 22%
[3]; Safety population (n = 50)
  Best ORR (CR + PR + SD): 6 (12.0, 4.5–24.3) No. (%, 95% CI)
  Best RR (CR + PR): 4 (8.0, 2.2–19.2) No. (%, 95% CI)
  Median OS (95% CI): 6.1 (4.0–10.4) months
  Median PFS (95% CI): 4.6 (3.7–5.3) months
  Median response duration: 19.1 months
[3]; first response evaluation, after 3-month treatment at individual MTD, efficacy population
  patients with partial response (PR): 3/27
[3]; [6]
  OS: 750 (NC) Days
  PFS: 441 (NC) Days
[3]; [7]
  OS: 1352 (C) Days
  PFS: 385 (C) Days
[3]; single patient: High grade glioma, no molecular data, last dose level 280 mg/m^2/d, (C) censored
  PFS: 499 (C) Days
[3]; single patient: High grade glioma, no molecular data, last dose level 280 mg/m^2/d, (NC) not censored
  OS: 682 (NC) Days
[3]; [8]
  OS: 871 (C) Days
  PFS: 422 (C) Days
[3]; [9]
  OS: 1190 (C) Days
  PFS: 456 (C) Days
